In ChEMBL document CHEMBL6115028, “An Amazing 30-Year Journey around the DABO Family: A Medicinal Chemistry Lesson on a Versatile Class of Non-nucleoside HIV-1 Reverse Transcriptase Inhibitors” (J Med Chem, 2025):
≈ marks a conversion by molar mass, not a printed value. One block for each compound: values may come before it.

What was measured:
[1] = Cytotoxicity against African green monkey Vero cells assessed as reduction in cell growth measured after 96 hrs by MTT assay; assay type: toxicity, cell-based; conditions: chlorocebus sabaeus
[2] = Cytotoxicity against African green monkey Vero cells assessed as reduction in cell viability measured after 96 hrs by MTT assay; assay type: toxicity, cell-based; conditions: chlorocebus sabaeus
[3] = Inhibition of Hepatitis C virus NS5B RNA dependent RNA polymerase; design: species or system Hepacivirus hominis
[4] = tested on: Zika virus; test: Antiviral activity against Zika virus infected in Vero cells assessed as reduction in viral DNA replication; assay type: functional, organism-based
[5] = Inhibition of HIV-1 Reverse transcriptase G190S mutant; design: species or system Human immunodeficiency virus 1
[6] = tested on: Human immunodeficiency virus 1; test: Antiviral activity against HIV-1 IIIB infected in human C8166 cells assessed as reduction in virus-induced cytopathic effect incubated for 3 days by MTT assay; assay type: functional, organism-based; conditions: Human immunodeficiency virus 1, IIIB, C8166, 72 h
[7] = Selectivity index, ratio of CC50 for human C8166 cells to EC50 for antiviral activity against HIV-1 IIIB infected in human C8166 cells; assay type: toxicity, cell-based; conditions: read-out: Ratio CC50/EC50
[8] = tested on: Human immunodeficiency virus 1; test: Antiviral activity against wild type HIV-1 IIIB infected in human MT4 cells; assay type: functional, organism-based; conditions: Human immunodeficiency virus 1, IIIB
[9] = tested on: C8166; test: Cytotoxicity against human C8166 cells assessed as reduction in cell viability incubated for 72 hrs by MTT assay; assay type: functional
[10] = tested on: Candida albicans; test: Antifungal activity against Candida albicans ATCC 10231 assessed as growth inhibition measured after 48 hrs by CLSI based method; assay type: functional
[11] = tested on: Staphylococcus aureus; test: Antibacterial activity against Staphylococcus aureus ATCC 25923 assessed as reduction in bacterial growth incubated for 18 to 20 hrs by broth microdilution assay; assay type: functional; conditions: time 18-20 hrs
[12] = tested on: Bacillus cereus; test: Antibacterial activity against Bacillus cereus ATCC 4342 assessed as inhibition of microbial growth incubated for 24 hrs by microdilution method; assay type: functional
[13] = tested on: Bacillus subtilis; test: Antibacterial activity against Bacillus subtilis ATCC 6633 assessed as bacterial growth inhibition measured after 48 hrs by resazurin assay; assay type: functional
[14] = tested on: Aspergillus niger; test: Antifungal activity against Aspergillus niger assessed as reduction in fungal growth; assay type: functional
[15] = tested on: dengue virus type 4; test: Antiviral activity Dengue virus 4; assay type: functional, organism-based
[16] = tested on: dengue virus type 3; test: Antiviral activity Dengue virus 3; assay type: functional, organism-based
[17] = Cytotoxicity against African green monkey Vero cells; assay type: toxicity, cell-based; conditions: chlorocebus sabaeus
[18] = tested on: dengue virus type 1; test: Antiviral activity Dengue virus 1; assay type: functional, organism-based
[19] = tested on: dengue virus type 2; test: Antiviral activity Dengue virus 2; assay type: functional, organism-based
[20] = tested on: MT4; test: Cytotoxicity against human MT4 cells assessed as reduction in cell viability by MTT assay; assay type: functional
[21] = target: T1, Human immunodeficiency virus type 1 reverse transcriptase (Human immunodeficiency virus 1, UniProt Q72547); test: Inhibition of recombinant HIV-1 reverse transcriptase associated RNA-dependent DNA polymerase activity
[22] = tested on: Human immunodeficiency virus 1; test: Antiviral activity against HIV-1 infected in human MT4 cells assessed as reduction in virus induced cytopathic effect measured for 4 days by MTT assay; assay type: functional, organism-based; conditions: Human immunodeficiency virus 1, MT4, 96 h
[23] = Selectivity index, ratio of CC50 for human MT4 cells to EC50 for antiviral activity against HIV-1 infected in human MT4 cells; assay type: toxicity, cell-based; conditions: read-out: Ratio CC50/EC50
[24] = tested on: Human immunodeficiency virus 1; test: Antiviral activity against HIV-1 harboring L100I mutant infected in human MT4 cells assessed as virus-induced cytopathicity treated for 5 days by MTT assay; assay type: functional, organism-based; conditions: Human immunodeficiency virus 1, MT4, 120 h
[25] = tested on: Human immunodeficiency virus 1; test: Antiviral activity against HIV1 harboring Y181C mutant infected in human MT4 cells; assay type: functional, organism-based; conditions: Human immunodeficiency virus 1, MT4
[26] = tested on: Human immunodeficiency virus 1; test: Antiviral activity against HIV1 harboring Y188H mutant infected in MT4 cells assessed as virus-induced cytopathicity treated for 5 days by MTT assay; assay type: functional, organism-based; conditions: Human immunodeficiency virus 1, MT4, 120 h
[27] = target: T1, Human immunodeficiency virus type 1 reverse transcriptase; test: Binding affinity to wild type HIV-1 reverse transcriptase assessed as inhibition constant
[28] = tested on: Human immunodeficiency virus 1; test: Antiviral activity against wild type HIV-1 NL4-3 infected in human MT4 cells assessed as reduction in viral replication measured for 72 hrs by ELISA analysis; assay type: functional, organism-based; conditions: Human immunodeficiency virus 1, NL4-3, MT4, 72 h
[29] = target: Reverse transcriptase (Human immunodeficiency virus 1, UniProt Q9WKE8, K103N); test: Binding affinity to HIV-1 reverse transcriptase K103N mutant assessed as inhibition constant
[30] = tested on: Human immunodeficiency virus 1; test: Antiviral activity against HIV-1 harboring L100I mutant infected in human MT4 cells assessed as […]; assay type: functional, organism-based; conditions: Human immunodeficiency virus 1, MT4
[31] = tested on: Human immunodeficiency virus 1; test: Antiviral activity against HIV1 harboring K103N mutant infected in MT4 cells; assay type: functional, organism-based; conditions: Human immunodeficiency virus 1, MT4
[32] = tested on: Human immunodeficiency virus 1; test: Antiviral wild type activity against HIV-1 IIIB infected in human C8166 cells assessed as reduction in virus-induced cytopathic effect incubated for 3 days by MTT assay; assay type: functional, organism-based; conditions: Human immunodeficiency virus 1, IIIB, C8166, 72 h
[33] = tested on: Human immunodeficiency virus 1; test: Antiviral wild type activity against HIV-1 TC-1 infected in human PBMC cells assessed as reduction in virus-induced cytopathic effect incubated for 3 days by MTT assay; assay type: functional, organism-based; conditions: Human immunodeficiency virus 1, TC-1, PBMC, 72 h
[34] = tested on: Human immunodeficiency virus 1; test: Antiviral wild type activity against HIV-1 WAN infected in human PBMC cells assessed as reduction in virus-induced cytopathic effect incubated for 3 days by MTT assay; assay type: functional, organism-based; conditions: Human immunodeficiency virus 1, WAN, 72 h
[35] = tested on: Human immunodeficiency virus 1; test: Antiviral […] activity against HIV-1 A17 harboring reverse transcriptase K103N/Y181C double mutant infected in human C8166 cells assessed as reduction in virus-induced cytopathic effect incubated for 3 days by MTT assay; assay type: functional, organism-based; conditions: Human immunodeficiency virus 1, A17, C8166, 72 h
[36] = tested on: Human immunodeficiency virus 1; test: Antiviral wild type activity against HIV-1 Ba-L infected in human TZM-bl cells assessed as reduction in virus-induced cytopathic effect incubated for 3 days by MTT assay; assay type: functional, organism-based; conditions: Human immunodeficiency virus 1, Ba-L, 72 h

Compound: CCc1c(CC2CCCCC2)nc(SCC(=O)Nc2cc(F)cc(F)c2)[nH]c1=O
CC50 at 96 h [1]: 60.2 µM | CC50 at 96 h [2]: > 10 µM | IC50 [3]: 0.089 µM | EC50 [4]: > 50 µM

Compound: Cc1cc(/C=C/C#N)cc(C)c1Nc1ncnc(Nc2ccc(C#N)cc2)n1
IC50 [5]: 0.0001 µM

Compound: CCc1c(CC23CC4CC(CC(C4)C2)C3)nc(SCC(=O)c2ccccc2)[nH]c1=O
EC50 [6]: 0.19 µM | selectivity ratio [7]: 107 | EC50 [8]: 0.19 µM | CC50 [9]: 20.4 µM

MIC [10]: 50 µg/mL (≈ 138 µM) | MIC [11]: 25 µg/mL (≈ 69.2 µM) | MIC [12]: 100 µg/mL | MIC [13]: 50 µg/mL (≈ 138 µM) | MIC [14]: 75 µg/mL (≈ 207 µM)
Compound: CCc1c(Cc2ccc3c(c2)OCO3)nc(SCCN(C)C)[nH]c1=O

EC50 [15]: 11.4 µM | EC50 [16]: 6.8 µM | EC50 [18]: 17.5 µM | EC50 [19]: 13.2 µM
Compound: CCc1c(CC2CCCCC2)nc(SCc2n[nH]c(-c3ccc(F)cc3)c2Cl)[nH]c1=O
CC50 [17]: > 200 µM

Compound: CCC(C)Oc1nc(N)cc(S(=O)(=O)c2cccc(C)c2)n1 (configuration not stated)
CC50 [20]: > 200 µM | IC50 [21]: 26.5 µM | EC50 [22]: 4.7 µM | selectivity ratio [23]: > 43

Compound: C[C@H](Sc1nc(N)cc(Cl)n1)c1cc2ccoc2cn1
EC50 [24]: 0.039 µM | EC50 [25]: 0.179 µM | EC50 [26]: 0.077 µM

MIC [10]: 25 µg/mL (≈ 52.4 µM) | MIC [11]: 25 µg/mL (≈ 52.4 µM) | MIC [12]: 75 µg/mL | MIC [13]: 100 µg/mL (≈ 209 µM) | MIC [14]: 75 µg/mL (≈ 157 µM)
Compound: CCc1c(Cc2ccc3c(c2)OCO3)nc(SCCCN2C(=O)c3ccccc3C2=O)[nH]c1=O

EC50 [15]: 8.91 µM | EC50 [16]: 7.08 µM | EC50 [18]: 1.47 µM | EC50 [19]: 9.23 µM
Compound: CCc1c(CC2CCCCC2)nc(SCc2n[nH]c(-c3ccc(F)c(F)c3)c2Cl)[nH]c1=O
CC50 [17]: > 200 µM

Compound: Cc1c(C(C)c2c(F)cccc2Cl)nc(N(C)C)[nH]c1=O (configuration not stated)
Ki [27]: 0.017 µM | EC50 [28]: 0.003 µM | Ki [29]: 0.75 µM

Compound: O=c1cc(Cc2ccccc2)nc(NCCCCO)[nH]1
EC50 [30]: 525 µM | EC50 [31]: 840 µM

Compound: CCc1c(CC2CCCCC2)nc(SCc2cc(-c3ccc(SC)cc3)[nH]n2)[nH]c1=O
EC50 [6]: 0.011 µM | EC50 [32]: 0.018 µM | EC50 [33]: 0.055 µM | EC50 [34]: 0.165 µM | EC50 [35]: 4.87 µM | EC50 [36]: 0.193 µM
